The term IC50 denotes the midpoint of a concentration-inhibition curve.

This is an account of results in patent US10759790B2, “Heterocyclic constrained tricyclic sulfonamides as anti-cancer agents” (ICAHN SCHOOL OF MEDICINE AT MOUNT SINAI, priority 2015, dated 2020).

For the first data set, the system named is H1650 lung cancer cells. As to the kind of experiment: Cell viability assay (MTT, IC50 determination). Particulars: Homo sapiens, NCI-H1650, 48 h, read-out: H1650 cell viability IC50. The format is cell-based. The method, then:
Cell viability assays were performed according to Denizot, F. and R. Lang, Journal of Immunological Methods, 1986. 89(22): p. 271-277. H1650 lung cancer cells were plated at 150,000 cells per well in a 12 well plate. Twenty-four hours after plating, cells were treated as described with increasing concentrations of drug and control. Forty-eight hours after drug treatment, cells were treated with 100 μL of 3-(4,5-Dimethylthiazol-2-yl)-2,5-diphenyltetrazolium bromide (MTT) and incubated for 2 hours at 37 C. The MTT solution was subsequently replaced with 300 μL of n-propyl alcohol and re-aliquoted to a 96 well plate. Spectrophotometric analysis of each solution was performed using a 96 well plate reader at 600 nm in triplicate.
As for `CC(=O)N1C[C@@H](NS(=O)(=O)c2ccc(OC(F)(F)F)cc2)[C@H](O)[C@@H](N2c3ccccc3Oc3ccccc32)C1` [Example 18a, N-((3R,4R,5S)-1-acetyl-4-hydroxy-5-(10H-phenoxazin-10-yl)piperidin-3-yl)-4-(trifluoromethoxy)benzenesulfonamide], the IC50 is 25 µM.

Regarding `[N-]=[N+]=Nc1ccc(S(=O)(=O)N[C@@H]2COC[C@H](N3c4ccccc4Oc4ccccc43)[C@H]2O)cc1` [Example 6], the IC50 amounted to 25 µM.

Turning to `COC(=O)N1C[C@@H](NS(=O)(=O)c2ccc(OC(F)(F)F)cc2)[C@H](O)[C@@H](N2c3ccccc3Oc3ccccc32)C1` [Example 20a, (3S,4R,5R)-methyl 4-hydroxy-3-(10H-phenoxazin-10-yl)-5-(4-(trifluoromethoxy)phenylsulfonamido)piperidine-1-carboxylate], the IC50 came to 15 µM.

The same data set, now with this note: Homo sapiens, NCI-H1650; H1650 lung cancer cells, MTT, 48 hours after drug treatment; read-out: H1650 cell viability IC50.
On to `O=S(=O)(N[C@@H]1CNC[C@H](n2c3ccccc3c3ccccc32)[C@H]1O)c1ccc(OC(F)(F)F)cc1` [Example 41a, N-((3R,4R,5S)-5-(9H-carbazol-9-yl)-4-hydroxypiperidin-3-yl)-4-(trifluoromethoxy)benzenesulfonamide], for which the IC50 came out at 10 µM.

For `CC(C)(C)OC(=O)N1C[C@@H](NS(=O)(=O)c2ccc(OC(F)(F)F)cc2)[C@H](O)[C@@H](n2c3ccc(Cl)cc3c3cc(Cl)ccc32)C1` [Example 56, (3S,4R,5R)-tert-butyl 3-(3,6-dichloro-9H-carbazol-9-yl)-4-hydroxy-5-(4-(trifluoromethoxy)phenylsulfonamido)piperidine-1-carboxylate], the IC50 stood at 5 µM.

With `O=S(=O)(N[C@@H]1COC[C@H](N2c3ccccc3Oc3cc(C(F)(F)F)ccc32)[C@H]1O)c1ccc(OC(F)(F)F)cc1` [Example 15, N-((3R,4R,5S)-4-hydroxy-5-(3-(trifluoromethyl)-10H-phenoxazin-10-yl)tetrahydro-2H-pyran-3-yl)-4-(trifluoromethoxy)benzenesulfonamide], the IC50 was determined as 5 µM.

Take `O=S(=O)(N[C@@H]1COCC(N2c3ccccc3Oc3ccccc32)[C@H]1O)c1ccc(OC(F)(F)F)cc1` (relative stereo) [Example 2, N-(4-hydroxy-5-(10H-phenoxazin-10-yl)tetrahydro-2H-pyran-3-yl)-4-(trifluoromethoxy)benzenesulfonamide]: the IC50 was 15 µM.

As to `O=S(=O)(N[C@@H]1COC[C@H](n2c3ccc(Cl)cc3c3cc(Cl)ccc32)[C@H]1O)c1ccc(OC(F)(F)F)cc1` [Example 5, N-((3R,4R,5S)-5-(3,6-dichloro-9H-carbazol-9-yl)-4-hydroxytetrahydro-2H-pyran-3-yl)-4-(trifluoromethoxy)benzenesulfonamide], the half-maximal inhibitory concentration (IC50) worked out at 5 µM.

Turning to `O=S(=O)(N[C@@H]1COC[C@H](N2c3ccccc3Oc3ccccc32)[C@H]1O)c1ccccc1Cl` [Example 65, 2-chloro-N-((3R,4R,5S)-4-hydroxy-5-(10H-phenoxazin-10-yl)tetrahydro-2H-pyran-3-yl)benzenesulfonamide], the IC50 stood at 20 µM.

`O=S(=O)(N[C@@H]1COC[C@H](N2c3ccccc3Oc3ccccc32)[C@H]1O)c1ccc(C(F)(F)F)nc1` [Example 63, N-((3R,4R,5S)-4-hydroxy-5-(10H-phenoxazin-10-yl)tetrahydro-2H-pyran-3-yl)-6-(trifluoromethyl)pyridine-3-sulfonamide]: the IC50 amounted to 20 µM.

As to `CC(C)(C)OC(=O)N1C[C@@H](NS(=O)(=O)c2ccc(OC(F)(F)F)cc2)[C@H](O)[C@@H](n2c3ccccc3c3ccccc32)C1` [Example 52a, (3S,4R,5R)-tert-butyl 3-(9H-carbazol-9-yl)-4-hydroxy-5-(4-(trifluoromethoxy)phenylsulfonamido)piperidine-1-carboxylate], the IC50 was determined as 5 µM.

Take `O=S(=O)(N[C@@H]1COC[C@H](N2c3ccccc3Oc3cc(F)ccc32)[C@H]1O)c1ccc(OC(F)(F)F)cc1` [Example 11, N-((3R,4R,5S)-5-(3-fluoro-10H-phenoxazin-10-yl)-4-hydroxytetrahydro-2H-pyran-3-yl)-4-(trifluoromethoxy)benzenesulfonamide]: the IC50 was found to be 10 µM.

With `O=S(=O)(N[C@@H]1COC[C@H](n2c3ccccc3c3ccccc32)[C@H]1O)c1ccc(OC(F)(F)F)cc1` [Example 50, N-((3R,4R,5S)-5-(9H-carbazol-9-yl)-4-hydroxytetrahydro-2H-pyran-3-yl)-4-(trifluoromethoxy)benzenesulfonamide], the IC50 came out at 10 µM.

As to `O=S(=O)(N[C@@H]1CNC[C@H](n2c3ccc(F)cc3c3cc(F)ccc32)[C@H]1O)c1ccc(OC(F)(F)F)cc1` [Example 55, N-((3R,4R,5S)-5-(3,6-difluoro-9H-carbazol-9-yl)-4-hydroxypiperidin-3-yl)-4-(trifluoromethoxy)benzenesulfonamide], the IC50 was 5 µM.

`CC(C)(C)OC(=O)N1CC(N2c3ccccc3Oc3ccccc32)[C@@H](O)[C@H](NS(=O)(=O)c2ccc(OC(F)(F)F)cc2)C1` (mixture of isomers) [Example 16, Rac-(3S,4R,5R)-tert-butyl 4-hydroxy-3-(10H-phenoxazin-10-yl)-5-(4-(trifluoromethoxy)phenylsulfonamido)piperidine-1-carboxylate]: the IC50 came out at 10 µM.

`O=S(=O)(N[C@@H]1COC[C@H](N2c3ccccc3Oc3ccc(F)cc32)[C@H]1O)c1ccc(OC(F)(F)F)cc1` [Example 7, N-((3R,4R,5S)-5-(2-fluoro-10H-phenoxazin-10-yl)-4-hydroxytetrahydro-2H-pyran-3-yl)-4-(trifluoromethoxy)benzenesulfonamide]: the IC50 amounted to 15 µM.

For `O=S(=O)(N[C@@H]1COC[C@H](n2c3ccccc3c3cc(F)ccc32)[C@H]1O)c1ccc(OC(F)(F)F)cc1` [Example 4, N-((3R,4R,5S)-5-(3-fluoro-9H-carbazol-9-yl)-4-hydroxytetrahydro-2H-pyran-3-yl)-4-(trifluoromethoxy)benzenesulfonamide], the IC50 is 15 µM.

On to `Cc1ccc2c(c1)c1cc(C)ccc1n2[C@H]1COC[C@@H](NS(=O)(=O)c2ccc(OC(F)(F)F)cc2)[C@@H]1O` [Example 51, N-((3R,4R,5S)-5-(3,6-dimethyl-9H-carbazol-9-yl)-4-hydroxytetrahydro-2H-pyran-3-yl)-4-(trifluoromethoxy)benzenesulfonamide], for which the IC50 was 5 µM.

Take `O=S(=O)(N[C@@H]1COC[C@H](N2c3ccccc3Oc3ccc(C(F)(F)F)cc32)[C@H]1O)c1ccc(OC(F)(F)F)cc1` [Example 8, N-((3R,4R,5S)-4-hydroxy-5-(2-(trifluoromethyl)-10H-phenoxazin-10-yl)tetrahydro-2H-pyran-3-yl)-4-(trifluoromethoxy)benzenesulfonamide]: the IC50 was found to be 10 µM.

Consider `O=S(=O)(N[C@@H]1COC[C@H](N2c3ccccc3Oc3cc(Cl)ccc32)[C@H]1O)c1ccc(OC(F)(F)F)cc1` [Example 13, N-((3R,4R,5S)-5-(3-chloro-10H-phenoxazin-10-yl)-4-hydroxytetrahydro-2H-pyran-3-yl)-4-(trifluoromethoxy)benzenesulfonamide], for which the IC50 worked out at 5 µM.

The same data set, now with this note: at 40 uM; H1650 lung cancer cells, MTT, 48 hours.
On to `O=S(=O)(N[C@@H]1COC[C@H](N2c3ccccc3Oc3ccccc32)[C@H]1O)c1ccccc1` [Example 60, N-((3R,4R,5S)-4-hydroxy-5-(10H-phenoxazin-10-yl)tetrahydro-2H-pyran-3-yl)benzenesulfonamide], for which the “H1650 cell viability, % at 40 uM” value was 37% at 40 uM.
